{"source": "patent EP1227795B1", "about": "“LIPID COMPLEX OF ALKYCYCLINES” (priority 1999, dated 2001)", "assay": "water solubility of the alkycycline", "format": "physicochemical", "procedure": "The alkycycline of formula Ia as defined above is quite water insoluble (less than 0.1 mg/ml). This makes it difficult to be formulated as a sterile, storage stable, dosage form. Additionally, the alkycycline is unstable: • after twelve months at 4°C the decomposition of the bulk product is about from 4 to 6%. This percentage of decomposition is absolutely not acceptable for a pharmaceutical product."}
{"substance": "4-demethoxy-3'-deamino-3'-aziridinyl-4'-methansulfonyl daunorubicin [Ia]", "values": [{"measurement": "water solubility", "value": "less than 0.1 mg/ml"}]}
